The record followed here is patent US9290529B2, “Carbonic anhydrase inhibitors and method of their production” (USTAV ORGANICKE CHEMIE A BIOCHEMIE AKADEMIE VED CESKE …, priority 2011, dated 2016).

Test [1] concerns the target T1, human carbonic anhydrase II (hCA II) (Homo sapiens, UniProt P00918).
T1 construct: purchased Sigma Aldrich C6165
Description: Colorimetric carbonic anhydrase inhibition assay (CO2 hydration, phenol red), hCA II. Format: biochemical. Particulars: 0° C., HEPES pH 7.0. The procedure:
(§1) The compounds were assayed for inhibition activity of two isoforms of human carbonic anhydrase: hCA II and hCA IX. The human carbonic anhydrase II (HCA II) was purchased from Sigma Aldrich (Cat. No. C6165) in the form of lyophilized protein, which was dissolved before use in 10 mmol·l^−1 HEPES pH 7.0 to a concentration of 300 μmol·l^−1 and further diluted as required. Human carbonic anhydrase IX (HCA IX) was prepared by recombinant expression system in insect (Drosophila expression system, Invitrogen). […] This protein was further purified from media by chelating chromatography carrier His-Select Nickel Affinity Gel (Sigma, Cat No. P6611) and gel chromatography (Superdex 200 GL 30/300, GE Healthcare) according to the manufacturer's recommendations.
(§2) The principle of the method is based on measuring the rate of acidification of the solution that is observed as the color-shift of the acid-base-indicator (fenol red). The reaction was conducted in a glass tube placed in an ice bath (0° C., all stock solutions and enzymes were kept at the same temperature). […] This was followed by a CO2 saturation (stream flow 50 ml/min.) using a needle (18 G) up to color transition of fenol-red from red to yellow (typically 60 seconds by default). […] End point of reaction was determined by visual comparison with reference tube containing acid-base indicator (0.01% (wt./vol.) Fenol-red) and the pH adjusted to 7.0. […] Molar activity was calculated according to the formula:
(§3) [formula] where tB is the time of negative control without enzyme and tS is the time measured with an enzyme sample (and inhibitor), nprot is the number of moles of protein present in the sample. The value of IC50 for the inhibitor concentration corresponds inhibitor contraction required to decrease the specific activity to half of the value of non-inhibited enzyme. Selectivity towards CA IX inhibitor was calculated as the ratio of IC50 values for inhibition of HCA II against the value of IC50 for inhibition CA IX enzyme.

For test [2], the target named is T2, human carbonic anhydrase IX (hCA IX) (Homo sapiens, UniProt Q16790).
T2 construct: Construct contained the extracellular CA domain (amino acid residues 139-390) cloned into the pMT/BiP/V5-His vector; His tag (from vector pMT/BiP/V5-His) (C); BiP secretion signal (from vector pMT/BiP/V5-His) (N); made in house; host or cells: Drosophila expression system (Invitrogen), insect cells, secreted into SF 900 II medium
Description: Colorimetric carbonic anhydrase inhibition assay (CO2 hydration, phenol red), hCA IX. In kind it is biochemical. The conditions noted are these: for IC50: 0° C., HEPES pH 7.0, recombinant extracellular CA domain, read-out: IC50 (hCA IX); for Selectivity to hCA IX IC50 (hCA II)/IC50 (hCA IX): ratio of IC50 values. On the procedure: as §1, §2, §3

The test system of the next test is HCT116 cells. Description: Flow cytometric measurement of intracellular pH (pHi), HCT116 expressing CAIX. Format: cell-based, human. The procedure: (§4) The effect of carborane CAIX (carbonic anhydrase IX) inhibitors was evaluated on colorectal cancer cell line HCT116 expressing CAIX enzyme versus CA IX negative cell line of T-lymphoblastic leukemia CCRF-CEM. Acetazolamide, a known inhibitor of CAIX, was used as a standard. HCT116/CCRF-CEM cells were cultivated in McCoy/RPMI Media supplemented with 10% FCS and antibiotics and seeded at high density ([…] per 3.5 cm dish) to induce pericellular hypoxia and thus stimulate CA IX expression. Measurement of pHi was assessed as described in Cianchi et al. [Cianchi F., et al. Selective inhibition of carbonic anhydrase IX decreases cell proliferation and induces […] apoptosis in human cancer cells. The Journal of Pharmacology and Experimental Therapeutics, 2010, Vol. 334, No. 3, 710-719].
(§5) […] The pHi was measured by flow cytometry in cell cultures pretreated with 10 μM of pH sensitive probe carboxyseminaphtorhoda-fluor-1-acetoxymethyl ester (SNARF, Invitrogen, CA) for 15 min at 37° C. After incubation, the cells were washed twice with PBS. Because the addition of bicarbonate can affect pHi, all incubation and cell washes were performed in bicarbonate-free buffer. SNARF was excited at 488 nm and emitted at 580 and 640 nm. The ratio of the emission wavelengths at 640/580 nm was then used to estimate the pHi from a calibration curve. The calibration curve was prepared by nigericin clamp technique. In this method, after the SNARF labeling of untreated cells, aliquots of cell suspensions were re-suspended in a high potassium containing buffer at specific pH (usually 6.8, 7.0, 7.2, 7.4, 7.6 and 7.8). The cell suspensions were then clamped at a specific pH value by the addition of 0.03 μM nigericin (Sigma-Aldrich). Nigericin is a ionophore that allows the exchange of H for K ions, thus abolishing the pH gradient across the cell membrane. When the internal and external K concentrations are approximately equal, the pH rapidly equilibrates to the pH of the bathing solution. A total of 20,000 events were acquired on a FACS ARIA II flow cytometer (Becton. Dickinson) for further analysis.
(§6) The fluorescent ratio values (640/580 nm) calculated for each pH point were further used to construct calibration curve in Prism software (GraphPad Software, Inc., San Diego, Calif.), from which the pHi values in treated cells were determined (Table 3).
Background: A flow cytometer gives signals particle by particle.

In a further test the test system is CCRF-CEM cells. Description: Flow cytometric measurement of intracellular pH (pHi), CA IX negative CCRF-CEM. In kind it is cell-based, human. The conditions noted are these: 50 μM acetazolamide, 24 hour incubation, control 7.362. The procedure:
as §4, §5, §6

What is called IC50 is the point on the concentration scale where inhibition reaches its midpoint.

“1,1′-bis(3-sulfamoylpropyl)-3,3′-commo-bis(1,2-dicarba-3-cobalta(III)-closo-dodecabor)ate (1-) [CB-25]”: the IC50 in test [1] was determined as 40 nM. In test [2], the half-maximal inhibitory concentration (IC50) was determined as 4 nM and the “Selectivity to hCA IX IC50 (hCA II)/IC50 (hCA IX)” value (“Selectivity to hCA IX IC50” for short) amounted to 10.
For the compound “1-(2-sulfonamidethyl)-1,2-dicarba-closo-dodecaborane [CB-23]”, the IC50 in test [1] amounted to 400 nM. For the same compound, in test [2], the IC50 stood at 380 nM and the “Selectivity to hCA IX IC50” value was found to be 1.05.
The corresponding values for “1-(3-sulfamoyl-propyl)-3,3′-commo-(decahydro-1,2-dicarba-3-cobalta(III)-undecahydro-1′,2″-dicarba-closo-dodecabor)ate (1-), sodium salt dihydrate [CB-26]” are 110 nM, 14 nM and 7.9.
The corresponding values for “1-ethylenenesulfamide-3,3′-commo-bis(1,2-dicarba-3-cobalta(III)-closo-dodecabor)ate (1-) [CB-30]” are 570 nM, 0.7 nM and 814.
On the same counts, the results for “1-propylenesulfamide-3,3′-commo-bis(1,2-dicarba-3-cobalta(III)-closo-dodecabor)ate (1-) [CB-29]” are 3900 nM, 22 nM and 177.
Compound “9-sulfamide-10′-amine-2,2′-commo-(1,7,9-tricarba-1′,7′, 10′-tricarba-2-ferra(H)-closo-dodekabor)ane [CB-11]” registered an IC50 in test [1] of 83900 nM. In addition, in test [2], the IC50 is 1500 nM and the “Selectivity to hCA IX IC50” value is listed as 55.9.
Turning to `CC(=O)Nc1nnc(S(N)(=O)=O)s1` [acetazolamide, reference compound], the pHi in the test on HCT116 cells (HCT116, 50 μM acetazolamide, 24 hour incubation, control 7.516) was 7.47; in the test on CCRF-CEM cells it was 7.34. Also, the “intracellular acidification in HCT116 cells” value in the test on HCT116 cells (carboranes 1 μM versus acetazolamide 50 μM) was “mild intracellular acidification”.
